From ChEMBL document CHEMBL1201862, “PubChem BioAssay data set” (2004)
Activity calls are given as the source filed them.

Columns and labels:
[1] = A Cell Based Secondary Assay To Explore Cytotoxicity of Compounds that Sensitize Mycobacterium Tuberculosis to Beta-Lactam Antibiotics.; format: functional
[2] = cytotoxicity in HPDE-C7 cells, cell-based, fluorescence, HTS (AID 430); format: functional; settings: Homo sapiens
[3] = molecular target: T1, Ubiquitin-conjugating enzyme E2 N (Homo sapiens, UniProt P61088); format: functional;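 also: Dose-response confirmation in a TR-FRET assay detecting UBC13-driven polyubiquitin chain formation, inhibition measured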
T1 sequence (P61088 whole entry): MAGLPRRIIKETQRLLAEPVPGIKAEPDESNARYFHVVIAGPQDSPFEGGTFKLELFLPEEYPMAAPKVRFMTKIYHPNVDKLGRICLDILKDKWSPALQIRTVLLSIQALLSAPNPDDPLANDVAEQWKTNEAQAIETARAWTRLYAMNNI

Escherichia coli = test: microbe, parasite or virus in culture
[4] = cytotoxicity in KRAS-transformed pancreatic duct cells, primary screen, cell-based, fluorescence, HTS (AID 431); format: functional; settings: Homo sapiens;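 also: cell line used: HPDE-C7K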
Hexokinase HKDC1 = molecular target: T2, Hexokinase HKDC1 (Homo sapiens, UniProt Q2TB90); test: HKDC1 hexokinase activators, dose response, biochemical, W721R variant (AID 504730); format: functional
T2 sequence (Q2TB90 whole entry): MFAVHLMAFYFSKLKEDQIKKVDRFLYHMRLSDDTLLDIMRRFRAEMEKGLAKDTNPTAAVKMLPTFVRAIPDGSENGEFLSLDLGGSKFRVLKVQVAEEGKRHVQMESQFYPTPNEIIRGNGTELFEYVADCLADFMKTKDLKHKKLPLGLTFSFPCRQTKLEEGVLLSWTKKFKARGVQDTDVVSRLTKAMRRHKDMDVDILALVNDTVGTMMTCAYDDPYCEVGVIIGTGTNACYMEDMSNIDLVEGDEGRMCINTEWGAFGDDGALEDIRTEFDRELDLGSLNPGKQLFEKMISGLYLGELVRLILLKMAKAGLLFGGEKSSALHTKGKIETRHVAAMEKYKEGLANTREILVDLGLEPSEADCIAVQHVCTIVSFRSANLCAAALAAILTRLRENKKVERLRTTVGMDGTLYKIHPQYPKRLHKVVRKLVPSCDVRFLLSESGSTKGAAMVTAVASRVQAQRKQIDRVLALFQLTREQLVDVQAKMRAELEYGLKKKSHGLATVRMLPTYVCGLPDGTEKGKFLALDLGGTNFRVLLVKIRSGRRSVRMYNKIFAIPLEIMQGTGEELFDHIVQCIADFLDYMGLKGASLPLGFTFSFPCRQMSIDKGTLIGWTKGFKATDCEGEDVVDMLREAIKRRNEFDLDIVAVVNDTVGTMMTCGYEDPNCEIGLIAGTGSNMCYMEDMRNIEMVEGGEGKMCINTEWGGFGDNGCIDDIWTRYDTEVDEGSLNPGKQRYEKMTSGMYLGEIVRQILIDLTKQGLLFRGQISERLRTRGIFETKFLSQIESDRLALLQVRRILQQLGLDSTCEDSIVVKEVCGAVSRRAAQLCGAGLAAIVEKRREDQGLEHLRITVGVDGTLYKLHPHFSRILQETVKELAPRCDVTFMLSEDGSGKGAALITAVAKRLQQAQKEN

[5] = molecular target: T3, RNA-binding protein pos-1 (Caenorhabditis elegans, UniProt G5EF15); test: inhibitors of POS-1/mex-3 RNA binding, dose response, biochemical, fluorescence polarization (AID 1964);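 also: purified POS-1 fused to maltose binding protein made in E. coli; potency of compounds blocking POS-1 binding to fluorescent RNA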
T3 sequence (G5EF15 whole entry): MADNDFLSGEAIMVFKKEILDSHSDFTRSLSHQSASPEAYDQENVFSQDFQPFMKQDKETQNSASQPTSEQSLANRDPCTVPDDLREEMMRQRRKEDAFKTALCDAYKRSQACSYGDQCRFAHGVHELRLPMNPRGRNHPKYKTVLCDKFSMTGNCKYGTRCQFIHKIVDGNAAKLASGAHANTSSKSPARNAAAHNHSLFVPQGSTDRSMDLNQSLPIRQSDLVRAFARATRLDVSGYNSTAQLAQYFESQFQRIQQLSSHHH

[6] = molecular target: Intestinal-type alkaline phosphatase (Mus musculus, UniProt P24822); test: PubChem AID 488785; format: functional
Sequence of Intestinal-type alkaline phosphatase (Mus musculus, UniProt P24822) (P24822 whole entry): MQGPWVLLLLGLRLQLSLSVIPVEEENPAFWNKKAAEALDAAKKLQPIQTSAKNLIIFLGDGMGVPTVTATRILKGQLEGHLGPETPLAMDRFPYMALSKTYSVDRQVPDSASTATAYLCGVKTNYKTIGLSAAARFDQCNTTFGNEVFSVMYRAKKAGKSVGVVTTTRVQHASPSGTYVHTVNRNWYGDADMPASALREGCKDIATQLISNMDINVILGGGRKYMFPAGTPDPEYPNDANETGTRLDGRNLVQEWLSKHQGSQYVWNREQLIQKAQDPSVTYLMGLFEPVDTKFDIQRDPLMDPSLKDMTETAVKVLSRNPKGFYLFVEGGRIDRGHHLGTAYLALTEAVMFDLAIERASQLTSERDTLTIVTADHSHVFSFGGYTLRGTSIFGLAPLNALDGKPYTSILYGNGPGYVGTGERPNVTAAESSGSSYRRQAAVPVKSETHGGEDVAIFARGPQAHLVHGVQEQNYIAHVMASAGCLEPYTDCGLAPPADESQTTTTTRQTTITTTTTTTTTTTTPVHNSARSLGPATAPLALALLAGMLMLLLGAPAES

[7] = molecular target: Intestinal-type alkaline phosphatase (Homo sapiens, UniProt P09923); test: inhibition of human intestinal alkaline phosphatase – biochemical, dose response (AID 488876); format: functional
Sequence of Intestinal-type alkaline phosphatase (Homo sapiens, UniProt P09923) (P09923 whole entry): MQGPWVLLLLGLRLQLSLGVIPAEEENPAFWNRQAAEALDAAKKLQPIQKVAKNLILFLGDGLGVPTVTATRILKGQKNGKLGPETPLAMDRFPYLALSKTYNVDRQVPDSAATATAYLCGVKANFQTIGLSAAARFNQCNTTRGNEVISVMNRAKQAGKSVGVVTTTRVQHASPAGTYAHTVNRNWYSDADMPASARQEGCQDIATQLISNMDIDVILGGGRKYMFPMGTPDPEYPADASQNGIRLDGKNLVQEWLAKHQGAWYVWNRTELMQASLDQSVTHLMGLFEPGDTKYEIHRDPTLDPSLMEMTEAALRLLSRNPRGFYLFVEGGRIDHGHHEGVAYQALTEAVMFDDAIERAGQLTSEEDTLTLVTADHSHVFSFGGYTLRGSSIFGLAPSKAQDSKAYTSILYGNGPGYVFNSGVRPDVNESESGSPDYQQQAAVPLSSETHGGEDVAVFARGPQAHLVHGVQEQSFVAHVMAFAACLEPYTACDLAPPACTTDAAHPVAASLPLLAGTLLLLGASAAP

[8] = molecular target: T4, Alkaline phosphatase, tissue-nonspecific isozyme (Homo sapiens, UniProt P05186); test: TNAP enzyme inhibition by screening hits, dose response, selectivity assay for mouse IAP inhibitor project, biochemical, human TNAP, uHTS hits (AID 488906); format: functional
T4 sequence (P05186 whole entry): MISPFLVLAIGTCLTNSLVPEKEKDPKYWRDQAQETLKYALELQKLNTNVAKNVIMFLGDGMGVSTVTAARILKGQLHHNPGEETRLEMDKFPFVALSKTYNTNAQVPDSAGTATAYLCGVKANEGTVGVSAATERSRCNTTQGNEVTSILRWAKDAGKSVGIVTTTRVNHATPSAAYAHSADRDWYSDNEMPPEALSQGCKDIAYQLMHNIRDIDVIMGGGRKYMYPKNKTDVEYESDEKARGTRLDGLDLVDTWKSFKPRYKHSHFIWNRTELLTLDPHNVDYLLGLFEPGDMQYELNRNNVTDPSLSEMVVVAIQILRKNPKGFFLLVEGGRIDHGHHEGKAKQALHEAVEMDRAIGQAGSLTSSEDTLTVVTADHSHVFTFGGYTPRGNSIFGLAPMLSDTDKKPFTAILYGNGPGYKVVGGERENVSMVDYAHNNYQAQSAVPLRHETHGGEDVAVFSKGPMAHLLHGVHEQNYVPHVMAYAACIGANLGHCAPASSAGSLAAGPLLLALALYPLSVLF

[9] = molecular target: DNA (cytosine-5)-methyltransferase 1 (Homo sapiens, UniProt P26358); test: DNMT1 methyltransferase inhibitors, confirmation, biochemical, fluorescent molecular beacon (AID 602386); format: functional
Sequence of DNA (cytosine-5)-methyltransferase 1 (P26358 whole entry): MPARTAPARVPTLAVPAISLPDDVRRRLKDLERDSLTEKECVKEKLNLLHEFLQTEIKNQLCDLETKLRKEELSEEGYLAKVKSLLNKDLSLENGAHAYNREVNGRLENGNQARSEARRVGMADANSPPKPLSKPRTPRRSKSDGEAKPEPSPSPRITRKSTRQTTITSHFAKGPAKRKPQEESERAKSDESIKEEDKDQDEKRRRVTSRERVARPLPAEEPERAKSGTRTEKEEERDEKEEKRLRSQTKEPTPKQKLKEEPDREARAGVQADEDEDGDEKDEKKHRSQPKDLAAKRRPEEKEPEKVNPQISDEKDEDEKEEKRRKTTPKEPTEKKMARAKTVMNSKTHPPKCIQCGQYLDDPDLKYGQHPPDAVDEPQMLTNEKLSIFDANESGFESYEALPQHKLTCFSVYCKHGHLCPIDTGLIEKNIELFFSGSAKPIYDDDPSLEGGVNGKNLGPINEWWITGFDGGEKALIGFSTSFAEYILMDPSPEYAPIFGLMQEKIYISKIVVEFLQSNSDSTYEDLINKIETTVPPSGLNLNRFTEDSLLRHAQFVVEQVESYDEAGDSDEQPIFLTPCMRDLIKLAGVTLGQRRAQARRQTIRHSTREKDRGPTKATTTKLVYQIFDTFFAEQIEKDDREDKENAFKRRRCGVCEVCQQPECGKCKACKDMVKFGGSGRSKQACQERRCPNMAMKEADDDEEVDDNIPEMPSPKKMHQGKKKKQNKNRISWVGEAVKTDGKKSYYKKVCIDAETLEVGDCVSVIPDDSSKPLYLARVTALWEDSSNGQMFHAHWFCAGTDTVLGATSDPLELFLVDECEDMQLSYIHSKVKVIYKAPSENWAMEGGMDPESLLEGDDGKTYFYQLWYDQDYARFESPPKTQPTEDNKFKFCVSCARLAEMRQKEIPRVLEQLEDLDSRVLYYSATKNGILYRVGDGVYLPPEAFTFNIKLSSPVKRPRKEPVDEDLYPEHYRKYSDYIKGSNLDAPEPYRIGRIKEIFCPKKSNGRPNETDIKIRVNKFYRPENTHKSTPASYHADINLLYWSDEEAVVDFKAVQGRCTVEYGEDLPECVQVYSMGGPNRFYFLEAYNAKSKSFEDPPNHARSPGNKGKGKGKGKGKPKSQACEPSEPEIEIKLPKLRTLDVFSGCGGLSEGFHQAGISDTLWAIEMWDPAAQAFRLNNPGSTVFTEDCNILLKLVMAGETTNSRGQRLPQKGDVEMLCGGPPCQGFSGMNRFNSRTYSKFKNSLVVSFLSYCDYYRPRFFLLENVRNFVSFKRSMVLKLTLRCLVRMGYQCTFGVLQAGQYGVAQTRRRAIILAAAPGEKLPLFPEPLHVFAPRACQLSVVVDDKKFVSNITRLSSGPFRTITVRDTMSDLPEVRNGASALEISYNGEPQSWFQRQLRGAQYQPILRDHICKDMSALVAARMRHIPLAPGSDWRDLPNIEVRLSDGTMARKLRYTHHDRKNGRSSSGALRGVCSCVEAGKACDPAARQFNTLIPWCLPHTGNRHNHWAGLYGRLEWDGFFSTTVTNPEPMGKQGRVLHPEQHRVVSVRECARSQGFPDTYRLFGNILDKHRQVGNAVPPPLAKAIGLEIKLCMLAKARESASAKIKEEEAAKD

Genome polyprotein = Genome polyprotein (dengue virus type 2, UniProt P29990); test: Dengue-2 NS5 methyltransferase inhibitors, primary screen, biochemical, confirmation dose response (AID 588689); format: functional
[10] = molecular target: T5, Zinc finger protein mex-5 (Caenorhabditis elegans, UniProt Q9XUB2); test: MEX-5/TCR-2 RNA interaction inhibitors, dose response, biochemical, C. elegans, fluorescence polarization (AID 1960)
T5 sequence (Q9XUB2 whole entry): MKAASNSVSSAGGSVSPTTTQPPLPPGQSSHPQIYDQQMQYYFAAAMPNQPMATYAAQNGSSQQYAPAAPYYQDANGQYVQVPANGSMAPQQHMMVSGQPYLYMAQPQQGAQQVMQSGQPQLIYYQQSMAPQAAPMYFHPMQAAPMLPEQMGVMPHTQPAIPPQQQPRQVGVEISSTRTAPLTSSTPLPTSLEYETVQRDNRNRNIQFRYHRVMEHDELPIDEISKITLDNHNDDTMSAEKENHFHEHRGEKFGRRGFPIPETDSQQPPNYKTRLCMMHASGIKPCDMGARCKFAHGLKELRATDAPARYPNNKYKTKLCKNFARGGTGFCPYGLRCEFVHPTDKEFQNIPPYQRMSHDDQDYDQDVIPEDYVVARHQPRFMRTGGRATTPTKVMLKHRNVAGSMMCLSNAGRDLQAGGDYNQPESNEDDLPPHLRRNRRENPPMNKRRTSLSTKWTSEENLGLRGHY

[11] = molecular target: Bifunctional protein GlmU (Mycobacterium tuberculosis, UniProt P9WMN3); test: Inhibitors of Mycobacterial Glucosamine-1-phosphate acetyl transferase (GlmU). Secondary screen.; set-up: species or system Mycobacterium tuberculosis H37Rv
Sequence of Bifunctional protein GlmU (P9WMN3 whole entry): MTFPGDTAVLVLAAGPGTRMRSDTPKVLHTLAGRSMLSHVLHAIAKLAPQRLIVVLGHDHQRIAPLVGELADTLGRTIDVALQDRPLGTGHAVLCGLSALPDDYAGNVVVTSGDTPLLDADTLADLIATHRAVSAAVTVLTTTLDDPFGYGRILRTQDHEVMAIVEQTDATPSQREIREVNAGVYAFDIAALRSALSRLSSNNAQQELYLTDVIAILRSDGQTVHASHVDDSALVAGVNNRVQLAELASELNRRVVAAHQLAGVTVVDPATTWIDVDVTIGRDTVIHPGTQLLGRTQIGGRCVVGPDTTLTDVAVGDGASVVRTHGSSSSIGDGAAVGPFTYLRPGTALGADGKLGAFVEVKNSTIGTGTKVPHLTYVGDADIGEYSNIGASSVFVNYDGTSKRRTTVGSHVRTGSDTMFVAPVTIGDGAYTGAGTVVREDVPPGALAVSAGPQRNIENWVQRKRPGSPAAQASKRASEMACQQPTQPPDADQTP

[12] = molecular target: Induced myeloid leukemia cell differentiation protein Mcl-1 (Homo sapiens, UniProt Q07820); format: functional
Cytochrome P450 1A2 = molecular target: T6, Cytochrome P450 1A2 (Homo sapiens, UniProt P05177);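 also: PubChem cytochrome P450 panel assay, CYP1A2 panel member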
T6 sequence (P05177 whole entry): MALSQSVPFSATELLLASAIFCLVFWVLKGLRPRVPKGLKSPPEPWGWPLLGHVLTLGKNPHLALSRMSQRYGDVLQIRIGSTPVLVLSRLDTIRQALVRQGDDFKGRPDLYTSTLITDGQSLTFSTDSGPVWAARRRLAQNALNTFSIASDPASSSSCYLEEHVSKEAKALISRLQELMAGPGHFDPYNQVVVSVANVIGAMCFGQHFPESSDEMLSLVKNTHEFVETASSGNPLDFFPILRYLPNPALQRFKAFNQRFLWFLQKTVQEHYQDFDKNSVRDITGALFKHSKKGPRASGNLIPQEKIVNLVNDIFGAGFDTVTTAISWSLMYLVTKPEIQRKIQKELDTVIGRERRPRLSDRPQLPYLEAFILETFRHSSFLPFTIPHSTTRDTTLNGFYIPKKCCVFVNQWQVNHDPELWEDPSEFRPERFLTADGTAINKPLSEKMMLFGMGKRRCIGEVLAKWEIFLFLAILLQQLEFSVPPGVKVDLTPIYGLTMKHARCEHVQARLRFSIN

Cytochrome P450 2C9 = Cytochrome P450 2C9 (Homo sapiens, UniProt P11712)
Sequence of Cytochrome P450 2C9 (P11712 whole entry): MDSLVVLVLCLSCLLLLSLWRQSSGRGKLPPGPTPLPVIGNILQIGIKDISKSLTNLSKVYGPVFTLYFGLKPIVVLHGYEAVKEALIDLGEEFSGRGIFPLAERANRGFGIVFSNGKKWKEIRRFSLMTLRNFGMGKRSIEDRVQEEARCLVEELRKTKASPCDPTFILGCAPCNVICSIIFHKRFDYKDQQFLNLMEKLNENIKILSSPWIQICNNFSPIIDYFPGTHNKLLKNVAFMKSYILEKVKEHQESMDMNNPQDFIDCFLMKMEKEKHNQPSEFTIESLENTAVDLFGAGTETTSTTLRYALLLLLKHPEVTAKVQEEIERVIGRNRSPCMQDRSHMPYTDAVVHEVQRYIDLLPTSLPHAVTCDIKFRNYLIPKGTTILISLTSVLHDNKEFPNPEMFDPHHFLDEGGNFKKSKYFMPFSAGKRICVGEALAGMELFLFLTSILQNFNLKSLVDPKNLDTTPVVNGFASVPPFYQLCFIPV

[13] = molecular target: DNA dC->dU-editing enzyme APOBEC-3G (Homo sapiens, UniProt Q9HC16); test: Dose Response confirmation of small molecule APOBEC3G DNA Deaminase Inhibitors via a fluorescence-based single-stranded DNA deaminase assay. [Related pubchem assays (depositor defined):AID493012, AID493028]; format: functional
Sequence of DNA dC->dU-editing enzyme APOBEC-3G (Q9HC16 whole entry): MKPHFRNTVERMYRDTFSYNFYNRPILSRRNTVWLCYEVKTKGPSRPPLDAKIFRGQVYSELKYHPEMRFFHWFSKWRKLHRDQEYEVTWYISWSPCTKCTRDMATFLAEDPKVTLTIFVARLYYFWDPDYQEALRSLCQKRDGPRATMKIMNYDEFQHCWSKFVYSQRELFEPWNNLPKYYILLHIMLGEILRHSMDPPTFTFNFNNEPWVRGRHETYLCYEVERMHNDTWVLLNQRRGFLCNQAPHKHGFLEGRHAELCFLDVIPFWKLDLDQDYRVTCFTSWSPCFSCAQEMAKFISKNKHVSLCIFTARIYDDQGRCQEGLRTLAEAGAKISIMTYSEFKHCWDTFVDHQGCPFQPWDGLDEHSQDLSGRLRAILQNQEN

[14] = molecular target: DNA dC->dU-editing enzyme APOBEC-3A (Homo sapiens, UniProt P31941); test: APOBEC3A DNA deaminase inhibitors, dose response, biochemical (AID 504722); format: functional
Sequence of DNA dC->dU-editing enzyme APOBEC-3A (P31941 whole entry): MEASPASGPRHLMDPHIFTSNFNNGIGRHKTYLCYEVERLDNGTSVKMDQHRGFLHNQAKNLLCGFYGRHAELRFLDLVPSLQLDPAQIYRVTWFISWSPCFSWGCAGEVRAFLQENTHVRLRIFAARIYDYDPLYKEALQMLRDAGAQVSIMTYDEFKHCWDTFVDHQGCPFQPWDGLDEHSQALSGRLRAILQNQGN

CAAX prenyl protease 1 = CAAX prenyl protease 1 (Saccharomyces cerevisiae S288c, UniProt P47154); test: Ste24 protease inhibitors, dose response, biochemical, S. cerevisiae, plate reader, cherry-pick (AID 488815)
Sequence of CAAX prenyl protease 1 (P47154 whole entry): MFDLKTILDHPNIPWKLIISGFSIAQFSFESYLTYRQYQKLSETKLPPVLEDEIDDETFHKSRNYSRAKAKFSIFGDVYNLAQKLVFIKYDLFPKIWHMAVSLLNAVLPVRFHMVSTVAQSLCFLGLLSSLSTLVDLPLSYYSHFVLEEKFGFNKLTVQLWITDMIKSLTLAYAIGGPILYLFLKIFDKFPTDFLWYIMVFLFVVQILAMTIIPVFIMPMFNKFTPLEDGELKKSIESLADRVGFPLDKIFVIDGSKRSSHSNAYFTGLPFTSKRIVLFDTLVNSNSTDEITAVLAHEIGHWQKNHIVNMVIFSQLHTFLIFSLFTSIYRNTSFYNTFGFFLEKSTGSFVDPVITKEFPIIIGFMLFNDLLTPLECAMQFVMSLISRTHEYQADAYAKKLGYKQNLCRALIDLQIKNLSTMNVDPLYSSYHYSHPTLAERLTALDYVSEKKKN

CAAX prenyl protease 2 = molecular target: T7, CAAX prenyl protease 2 (Saccharomyces cerevisiae S288c, UniProt Q03530); format: biochemical
T7 sequence (Q03530 whole entry): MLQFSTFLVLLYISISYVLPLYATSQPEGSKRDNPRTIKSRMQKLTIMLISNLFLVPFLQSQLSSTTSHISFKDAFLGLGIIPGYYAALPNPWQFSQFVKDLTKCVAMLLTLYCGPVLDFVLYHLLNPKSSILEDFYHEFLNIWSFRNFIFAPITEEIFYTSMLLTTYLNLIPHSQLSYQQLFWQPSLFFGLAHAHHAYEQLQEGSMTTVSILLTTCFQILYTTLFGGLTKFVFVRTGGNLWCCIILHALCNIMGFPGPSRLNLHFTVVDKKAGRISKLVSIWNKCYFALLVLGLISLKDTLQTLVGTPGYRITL

[15] = Shn3 3'UTR reporter inhibitors, dose response, cell-based, Clone20 osteoblasts, firefly luciferase, cherry-picked (AID 624132); format: functional;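 also: firefly luciferase luminescence from reporter carrying the Shn3 3'UTR in osteoblasts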
A-375 = test: MITF: Counter assay: A375 proliferation Measured in Cell-Based System Using Plate Reader - 2084-03_Inhibitor_Dose_DryPowder_Activity. [Related pubchem assays (depositor defined):AID488944]; format: functional; settings: Homo sapiens
[16] = inhibitors of intracellular T. cruzi replication, confirmation, NIH3T3 host cells, beta-gal luminescence (AID 2044); format: functional, cell-based;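 also: intracellular parasites grown in NIH/3T3 mouse fibroblasts as host cells; luminescent beta-galactosidase reporter signal from transgenic T. cruzi replicating inside host cells; inhibitors lower the luminescence signal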
[17] = cytotoxicity toward NIH3T3 fibroblasts, dose response, counter-screen, cell-based, ATP luminescence, mouse fibroblasts (AID 2010); format: functional;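 also: cells exposed to compound for about 90 hours before reading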
[18] = molecular target: T8, Microphthalmia-associated transcription factor (Homo sapiens, UniProt O75030); test: TRPM1 promoter luciferase signal decrease, dose response, MITF inhibitor project, cell-based, SK-MEL-5, cherry-picked, set 3 (AID 493073); format: functional
T8 sequence (O75030 whole entry): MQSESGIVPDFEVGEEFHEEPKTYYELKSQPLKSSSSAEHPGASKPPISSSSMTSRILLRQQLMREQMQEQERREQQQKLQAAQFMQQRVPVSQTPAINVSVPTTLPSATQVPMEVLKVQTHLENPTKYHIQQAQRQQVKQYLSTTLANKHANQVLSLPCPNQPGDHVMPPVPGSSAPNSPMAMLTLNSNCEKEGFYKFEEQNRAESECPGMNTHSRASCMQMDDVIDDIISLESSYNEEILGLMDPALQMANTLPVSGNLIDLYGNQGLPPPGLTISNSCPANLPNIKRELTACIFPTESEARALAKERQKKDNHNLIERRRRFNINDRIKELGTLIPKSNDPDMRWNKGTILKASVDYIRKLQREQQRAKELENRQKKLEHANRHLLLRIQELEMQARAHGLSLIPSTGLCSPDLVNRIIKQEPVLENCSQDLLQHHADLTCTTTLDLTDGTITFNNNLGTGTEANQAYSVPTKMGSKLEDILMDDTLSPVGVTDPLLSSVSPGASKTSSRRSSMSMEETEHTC

[19] = HepG2 cell cytotoxicity, dose response, cytotoxicity control for Shn3 inhibitor project, CellTiter-Glo, cherry-picked (AID 624134); format: functional, cell-based

## CCN(CC)CCCNC(=O)c1c(O)c2ccccc2n(Cc2ccccc2)c1=O
[1]
  CC50: 32 µM (active)
[2]
  EC50: > 20 µM (not active)
[3]
  IC50: > 20 µM (inactive)
Escherichia coli
  AC50: 23.5 µM (active)
[4]
  EC50: > 20 µM (not active)
Hexokinase HKDC1
  EC50: > 80 µM (inactive)

## CN1C(=O)NC(=O)/C(=C\c2ccc([N+](=O)[O-])o2)C1=O
[5]
  EC50: 33.3 µM (active)
[6]
  IC50: > 100 µM (inactive)
[7]
  IC50: > 100 µM (inactive)
[8]
  IC50: > 100 µM (inactive)
[9]
  IC50: 2.08 µM (active)
Genome polyprotein
  IC50: 42.6 µM (active)
[10]
  EC50: 20.6 µM (active)

## O=C1CSC(=S)N1/N=C/c1ccc(O)c(O)c1O
[5]
  EC50: 5.17 µM (inconclusive)
[11]
  IC50: 7.79 µM (active)
[6]
  IC50: 4.15 µM (active)
[7]
  IC50: > 100 µM (inactive)
[8]
  IC50: 58.5 µM (active)
[12]
  IC50: 1.17 µM (active)
[10]
  EC50: 0.668 µM (inconclusive)

## CS(=O)(=O)N1CCC2(CCN(c3ccccc3)CC2)CC1
Cytochrome P450 1A2
  AC50: inconclusive
Cytochrome P450 2C9
  AC50: inconclusive

## Sc1nnc(-c2ccccn2)n1/N=C/c1ccc(Cl)cc1
[13]
  IC50: 3.33 µM (active)
[14]
  IC50: > 100 µM (inactive)

## COc1cc2c(cc1OC)C(C)=NC1(CCCCC1)C2
CAAX prenyl protease 1
  AC50: 8.72 µM (active)
CAAX prenyl protease 2
  AC50: 6.87 µM (active)

## Cc1ccc(-n2cc(CNCCCn3ccnc3C)c(-c3ccc(F)cc3)n2)cc1
[15]
  AC50: 20.6 µM (active)
A-375
  AC50: 21.2 µM (active)
[16]
  EC50: 1.77 µM (active)
[17]
  EC50: 14.4 µM (active)
[18]
  AC50: 7.58 µM (active)
[19]
  AC50: 16.7 µM (active)
